Results published in ChEMBL document CHEMBL1201862, “PubChem BioAssay data set” (2004).
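Protocol summary: plate cells (96-well), add compound at 5 concentrations, incubate 48 h, interpolate endpoints linearly. At the GI50, growth is halved.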 The source made the active and inactive calls. Rule as the data show it: active = GI50 up to about 1.1 µM and inactive = higher.

Assays:
Assay in all cases: NCI-60 cell line screen, 48 h
[1] = system: SK-OV-3
[2] = system: RXF 393
[3] = system: NCI-H522
[4] = system: KM-20L2
[5] = system: A498
[6] = system: HOP-62
[7] = system: NCI-H226
[8] = system: CCRF-CEM
[9] = system: LOX IMVI
[10] = system: 786-0
[11] = system: MOLT-4
[12] = system: OVCAR-4
[13] = system: ACHN
[14] = system: SNB-19
[15] = system: SNB-75
[16] = system: HCT-15
[17] = system: RXF 631
[18] = system: Malme-3M
[19] = system: UO-31
[20] = system: DLD-1
[21] = system: NCI-H23
[22] = system: SR
[23] = system: SN12C
[24] = system: HT-29
[25] = system: SW-620
[26] = system: UACC-62
[27] = system: K562
[28] = system: HOP-92
[29] = system: U-251
[30] = system: SF-539
[31] = system: SK-MEL-5
[32] = system: M19-MEL
[33] = system: CAKI-1
[34] = system: RPMI-8226
[35] = system: M14
[36] = system: NCI-H460
[37] = system: LXFL 529
[38] = system: COLO 205
[39] = system: UACC-257
[40] = system: DMS-114
[41] = system: TK-10
[42] = system: OVCAR-3
[43] = system: HCT-116
[44] = system: SNB-78
[45] = system: SF-295
[46] = system: A549
[47] = system: HL-60
[48] = system: EKVX
[49] = system: HCC 2998
[50] = system: SF-268
[51] = system: KM12
[52] = system: OVCAR-5
[53] = system: XF498
[54] = system: IGROV-1
[55] = system: SK-MEL-28
[56] = system: SK-MEL-2
[57] = system: OVCAR-8
[58] = system: HOP-18
[59] = system: DMS-273

O=C1C2C(C(=O)N1OS(=O)(=O)c1ccccc1)N(Cc1ccccc1)C(=O)N2Cc1ccccc1 (stereo not drawn)
GI50 [1]: > 100 µM (inactive)
GI50 [2]: 70.8 µM (inactive)
GI50 [3]: > 100 µM (inactive)
GI50 [4]: > 100 µM (inactive)
GI50 [5]: > 100 µM (inactive)
GI50 [6]: > 100 µM (inactive)
GI50 [7]: > 100 µM (inactive)
GI50 [8]: > 100 µM (inactive)
GI50 [9]: > 100 µM (inactive)
GI50 [10]: > 100 µM (inactive)
GI50 [11]: > 100 µM (inactive)
GI50 [12]: > 100 µM (inactive)
GI50 [13]: > 100 µM (inactive)
GI50 [14]: > 100 µM (inactive)
GI50 [15]: 57.1 µM (inactive)
GI50 [16]: > 100 µM
GI50 [17]: > 100 µM (inactive)
GI50 [18]: > 100 µM (inactive)
GI50 [19]: > 100 µM (inactive)
GI50 [20]: > 100 µM (inactive)
GI50 [21]: > 100 µM (inactive)
GI50 [22]: > 100 µM (inactive)
GI50 [23]: > 100 µM (inactive)
GI50 [24]: > 100 µM (inactive)
GI50 [25]: > 100 µM (inactive)
GI50 [26]: > 100 µM (inactive)
GI50 [27]: > 100 µM (inactive)
GI50 [28]: > 100 µM (inactive)
GI50 [29]: > 100 µM (inactive)
GI50 [30]: > 100 µM (inactive)
GI50 [31]: > 100 µM (inactive)
GI50 [32]: > 100 µM (inactive)
GI50 [33]: > 100 µM (inactive)
GI50 [34]: > 100 µM (inactive)
GI50 [35]: > 100 µM (inactive)
GI50 [36]: > 100 µM (inactive)
GI50 [37]: > 100 µM (inactive)
GI50 [38]: > 100 µM (inactive)
GI50 [39]: > 100 µM (inactive)
GI50 [40]: > 100 µM (inactive)
GI50 [41]: > 100 µM (inactive)
GI50 [42]: > 100 µM (inactive)
GI50 [43]: > 100 µM (inactive)
GI50 [44]: > 100 µM (inactive)
GI50 [45]: > 100 µM (inactive)
GI50 [46]: > 100 µM (inactive)
GI50 [47]: > 100 µM (inactive)
GI50 [48]: > 100 µM (inactive)
GI50 [49]: > 100 µM (inactive)
GI50 [50]: > 100 µM (inactive)
GI50 [51]: > 100 µM (inactive)
GI50 [52]: > 100 µM (inactive)
GI50 [53]: > 100 µM (inactive)
GI50 [54]: > 100 µM (inactive)
GI50 [55]: > 100 µM (inactive)

N#CCc1nc2c(s1)C(=O)c1ccccc1C2=O
GI50 [1]: > 100 µM (inactive)
GI50 [56]: 17.3 µM (inactive)
GI50 [2]: 30.6 µM (inactive)
GI50 [3]: 14.7 µM (inactive)
GI50 [4]: 38.4 µM (inactive)
GI50 [5]: 32.7 µM (inactive)
GI50 [6]: 15 µM (inactive)
GI50 [7]: 19.8 µM (inactive)
GI50 [9]: 13.5 µM (inactive)
GI50 [10]: 16.4 µM (inactive)
GI50 [11]: 1.22 µM (inactive)
GI50 [12]: 16.9 µM (inactive)
GI50 [13]: 14.1 µM (inactive)
GI50 [14]: 21.4 µM (inactive)
GI50 [15]: 23.1 µM (inactive)
GI50 [16]: 16.3 µM
GI50 [17]: 18.2 µM (inactive)
GI50 [18]: 19.9 µM (inactive)
GI50 [57]: 10.8 µM (inactive)
GI50 [19]: 15.5 µM (inactive)
GI50 [58]: 13.8 µM (inactive)
GI50 [21]: 17.5 µM (inactive)
GI50 [23]: 18.8 µM (inactive)
GI50 [24]: 22.8 µM (inactive)
GI50 [25]: 19.1 µM (inactive)
GI50 [26]: 13.1 µM (inactive)
GI50 [27]: 11.8 µM (inactive)
GI50 [28]: 18.5 µM (inactive)
GI50 [29]: 17.3 µM (inactive)
GI50 [59]: 15.8 µM (inactive)
GI50 [30]: 14.8 µM (inactive)
GI50 [31]: 11.4 µM (inactive)
GI50 [32]: 2.84 µM (inactive)
GI50 [33]: 22.2 µM (inactive)
GI50 [34]: 5.37 µM (inactive)
GI50 [35]: 15.2 µM (inactive)
GI50 [36]: 21.7 µM (inactive)
GI50 [37]: 15 µM (inactive)
GI50 [38]: 18.7 µM (inactive)
GI50 [39]: 15.2 µM (inactive)
GI50 [40]: 6.24 µM (inactive)
GI50 [41]: 21.8 µM (inactive)
GI50 [42]: 15.8 µM (inactive)
GI50 [43]: 14.3 µM (inactive)
GI50 [44]: 20 µM (inactive)
GI50 [45]: 19.4 µM (inactive)
GI50 [48]: 14.4 µM (inactive)
GI50 [49]: 19.9 µM (inactive)
GI50 [50]: 15.9 µM (inactive)
GI50 [51]: 18.5 µM (inactive)
GI50 [52]: 22.6 µM (inactive)
GI50 [54]: 3.76 µM (inactive)
GI50 [55]: 18.2 µM (inactive)
